The results in this text go back to US7378375B1, “Substituted pyridine herbicides” (Syngenta Crop Protection, Inc., priority 2000, dated 2008).

For experiment [1], the system named is Monocotyledonous and dicotyledonous test plants. Put plainly: Herbicidal action before emergence of the plants (pre-emergence action), greenhouse pot test, 9-level rating after 4 weeks. The experiment is classed as in vivo. Also noted: key: 9-level scale: 1 = complete damage, 9 = no effect. To be noted: 250 g/ha, rated after 4 weeks, 9-level scale. The procedure, abridged: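 Compounds applied pre-emergence as a spray (500 l water/ha) of aqueous suspension or emulsion onto soil immediately after sowing mono- and dicot species in pots. Greenhouse-grown; damage rated after 4 weeks on a 9-level scale (1=complete damage, 9=no effect).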

Experiment [2] shares this test system. The experiment can be described thus: Post-emergence herbicidal action, greenhouse pot test, sprayed at the 2- to 3-leaf stage, 9-level rating after 2 to 3 weeks. The experiment is classed as in vivo. Also noted: key: 9-level scale: 1 = complete damage, 9 = no effect. To be noted: 250 g/ha, rated after 2 to 3 weeks, 9-level scale. In outline:
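Plants grown in standard soil in pots; test substances sprayed at the 2- to 3-leaf stage at optimum dosage (500 l water/ha) as aqueous suspension or emulsion from formulated concentrates. Plants then kept in the greenhouse under optimum conditions; rated after 2 to 3 weeks on a 9-level scale (1=complete damage, 9=no effect).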

In the case of `CC(=O)OCc1nc(C(F)(F)F)ccc1C(=O)C1=C([O-])C2CCC(C2)C1=O.[K+]` (centres unmarked) [A833-B52 (K+)], in experiment [1], the “Pre-emergence action rating, Abutilon” value worked out at 1; the “Pre-emergence action rating, Amaranthus” value amounted to 2; the “Pre-emergence action rating, Chenop.” value was 1; the “Pre-emergence action rating, Digitaria” value came to 2. Besides, in experiment [1], the “Pre-emergence action rating, Echino.” value was found to be 2 and the “Pre-emergence action rating, Panicum” value was 1. Besides, in experiment [2], the “Post-emergence action rating, Abutilon” value stood at 3; the “Post-emergence action rating, Amaranth” value is on record as 3; the “Post-emergence action rating, Chenop.” value amounted to 3; the “Post-emergence action rating, Digitaria” value came out at 3. In addition, in experiment [2], the “Post-emergence action rating, Echino.” value is 4; the “Post-emergence action rating, Ipopur.” value is given as 3; the “Post-emergence action rating, Panicum” value worked out at 3; the “Post-emergence action rating, Xanth.” value came to 2.
In the case of `COCCOCc1nc(C(F)(F)F)ccc1C(=O)C1=C(O)C(C)(C)ON(C)C1=O` [A10-B25], in experiment [1], the “Pre-emergence action rating, Abutilon” value came to 1; the “Pre-emergence action rating, Amaranthus” value is 1; the “Pre-emergence action rating, Chenop.” value is given as 1; the “Pre-emergence action rating, Digitaria” value is 1. For the same molecule, in experiment [1], the “Pre-emergence action rating, Echino.” value was determined as 2 and the “Pre-emergence action rating, Panicum” value is 1. Further, in experiment [2], the “Post-emergence action rating, Abutilon” value stood at 3; the “Post-emergence action rating, Amaranth” value is on record as 2; the “Post-emergence action rating, Chenop.” value was 1; the “Post-emergence action rating, Digitaria” value came out at 4. For the same molecule, in experiment [2], the “Post-emergence action rating, Echino.” value is 4; the “Post-emergence action rating, Ipopur.” value is given as 3; the “Post-emergence action rating, Panicum” value turned out to be 3; the “Post-emergence action rating, Xanth.” value is recorded as 3.
As for `COCCOCc1nc(C(F)(F)F)ccc1C(=O)C1=C(O)CC(C)CC1=O` (centres unmarked) [A10-B111], in experiment [1], the “Pre-emergence action rating, Abutilon” value came out at 1; the “Pre-emergence action rating, Amaranthus” value was 1; the “Pre-emergence action rating, Digitaria” value is recorded as 1; the “Pre-emergence action rating, Echino.” value was 1. Besides, the “Pre-emergence action rating, Panicum” value in experiment [1] came to 1. Besides, in experiment [2], the “Post-emergence action rating, Abutilon” value is 3; the “Post-emergence action rating, Amaranth” value amounted to 2; the “Post-emergence action rating, Chenop.” value turned out to be 1; the “Post-emergence action rating, Digitaria” value is on record as 2. Also, in experiment [2], the “Post-emergence action rating, Echino.” value was 3; the “Post-emergence action rating, Ipopur.” value was determined as 3; the “Post-emergence action rating, Panicum” value stood at 2; the “Post-emergence action rating, Xanth.” value is 3.
`COCCOCc1nc(C(F)(F)F)ccc1C(=O)c1cnn(C)c1O` [A10-C5]: in experiment [1], the “Pre-emergence action rating, Abutilon” value is recorded as 1; the “Pre-emergence action rating, Amaranthus” value is listed as 1; the “Pre-emergence action rating, Chenop.” value amounted to 1; the “Pre-emergence action rating, Digitaria” value worked out at 3. In addition, in experiment [1], the “Pre-emergence action rating, Echino.” value is 1 and the “Pre-emergence action rating, Panicum” value amounted to 2. In experiment [2], the “Post-emergence action rating, Abutilon” value was 2; the “Post-emergence action rating, Amaranth” value is listed as 1; the “Post-emergence action rating, Chenop.” value amounted to 1; the “Post-emergence action rating, Digitaria” value is listed as 2. In experiment [2], the “Post-emergence action rating, Echino.” value was 2; the “Post-emergence action rating, Ipopur.” value is 2; the “Post-emergence action rating, Panicum” value is 2; the “Post-emergence action rating, Xanth.” value was determined as 2.
On to `CCOCc1nc(C(F)(F)F)ccc1C(=O)c1cnn(C)c1O` [A2-C5], for which, in experiment [1], the “Pre-emergence action rating, Abutilon” value is on record as 1; the “Pre-emergence action rating, Amaranthus” value is listed as 1; the “Pre-emergence action rating, Chenop.” value was determined as 1; the “Pre-emergence action rating, Digitaria” value was 2. Moreover, in experiment [1], the “Pre-emergence action rating, Echino.” value stood at 2 and the “Pre-emergence action rating, Panicum” value stood at 1. Besides, in experiment [2], the “Post-emergence action rating, Abutilon” value stood at 2; the “Post-emergence action rating, Amaranth” value was 1; the “Post-emergence action rating, Chenop.” value was 1; the “Post-emergence action rating, Digitaria” value is 2. In experiment [2], the “Post-emergence action rating, Echino.” value was 2; the “Post-emergence action rating, Ipopur.” value is 2; the “Post-emergence action rating, Panicum” value came to 1; the “Post-emergence action rating, Xanth.” value is on record as 2.
As to `CCOCCOCc1nc(C(F)(F)F)ccc1C(=O)c1cnn(C)c1OS(C)(=O)=O` [A11-C28], in experiment [1], the “Pre-emergence action rating, Abutilon” value came out at 2; the “Pre-emergence action rating, Amaranthus” value stood at 1; the “Pre-emergence action rating, Chenop.” value amounted to 1; the “Pre-emergence action rating, Digitaria” value was 2. In experiment [1], the “Pre-emergence action rating, Echino.” value is given as 1 and the “Pre-emergence action rating, Panicum” value is recorded as 2. Further, in experiment [2], the “Post-emergence action rating, Abutilon” value is reported as 3; the “Post-emergence action rating, Amaranth” value is recorded as 2; the “Post-emergence action rating, Chenop.” value came to 1; the “Post-emergence action rating, Digitaria” value is recorded as 4. For the same molecule, in experiment [2], the “Post-emergence action rating, Echino.” value was 4; the “Post-emergence action rating, Ipopur.” value came out at 3; the “Post-emergence action rating, Panicum” value stood at 3; the “Post-emergence action rating, Xanth.” value was 3.
Turning to `COc1cc(OC)nc(SCc2nc(C(F)(F)F)ccc2C(=O)C2=C(O)C3CCC(C3)C2=O)n1` (centres unmarked) [A830-B52], in experiment [1], the “Pre-emergence action rating, Abutilon” value is listed as 5; the “Pre-emergence action rating, Amaranthus” value is 4; the “Pre-emergence action rating, Chenop.” value is 4; the “Pre-emergence action rating, Digitaria” value is reported as 9. In experiment [1], the “Pre-emergence action rating, Echino.” value is given as 3 and the “Pre-emergence action rating, Panicum” value turned out to be 4. Further, in experiment [2], the “Post-emergence action rating, Abutilon” value was 5; the “Post-emergence action rating, Amaranth” value is listed as 4; the “Post-emergence action rating, Chenop.” value came out at 4; the “Post-emergence action rating, Digitaria” value was 9. Moreover, in experiment [2], the “Post-emergence action rating, Echino.” value came to 3; the “Post-emergence action rating, Ipopur.” value came to 5; the “Post-emergence action rating, Panicum” value was 4; the “Post-emergence action rating, Xanth.” value came out at 4.
Regarding `COCCOCc1c(C(=O)C2=C(O)C3CCC(C3)C2=O)ccc(C(F)(F)F)[n+]1[O-]` (centres unmarked) [A736-B52], in experiment [1], the “Pre-emergence action rating, Abutilon” value worked out at 1; the “Pre-emergence action rating, Amaranthus” value came out at 1; the “Pre-emergence action rating, Chenop.” value turned out to be 1; the “Pre-emergence action rating, Digitaria” value was 4. Besides, in experiment [1], the “Pre-emergence action rating, Echino.” value came to 2 and the “Pre-emergence action rating, Panicum” value was found to be 1. Besides, in experiment [2], the “Post-emergence action rating, Abutilon” value came out at 1; the “Post-emergence action rating, Amaranth” value turned out to be 1; the “Post-emergence action rating, Chenop.” value is reported as 1; the “Post-emergence action rating, Digitaria” value was 1. Moreover, in experiment [2], the “Post-emergence action rating, Echino.” value was 2; the “Post-emergence action rating, Ipopur.” value is reported as 2; the “Post-emergence action rating, Panicum” value was 1; the “Post-emergence action rating, Xanth.” value amounted to 2.
Turning to `O=C(C1=C(O)C2CCC(C2)C1=O)c1ccc(C(F)(F)F)nc1COCC1CCCO1` (centres unmarked) [A848-B52], in experiment [1], the “Pre-emergence action rating, Abutilon” value is 7; the “Pre-emergence action rating, Amaranthus” value stood at 1; the “Pre-emergence action rating, Chenop.” value was 1; the “Pre-emergence action rating, Digitaria” value is given as 1. For the same molecule, in experiment [1], the “Pre-emergence action rating, Echino.” value was found to be 1 and the “Pre-emergence action rating, Panicum” value is 1. Moreover, in experiment [2], the “Post-emergence action rating, Abutilon” value is 2; the “Post-emergence action rating, Amaranth” value stood at 1; the “Post-emergence action rating, Chenop.” value stood at 1; the “Post-emergence action rating, Digitaria” value is 2. Also, in experiment [2], the “Post-emergence action rating, Echino.” value turned out to be 2; the “Post-emergence action rating, Ipopur.” value turned out to be 2; the “Post-emergence action rating, Panicum” value is 2; the “Post-emergence action rating, Xanth.” value is 2.
Take `COCCOCc1nc(C(F)(F)F)ccc1C(=O)C1=C(O)CCC2(CC2)C1=O` [A10-B17]: in experiment [1], the “Pre-emergence action rating, Abutilon” value is 4; the “Pre-emergence action rating, Amaranthus” value is 2; the “Pre-emergence action rating, Chenop.” value came to 1; the “Pre-emergence action rating, Digitaria” value worked out at 1. For the same molecule, in experiment [1], the “Pre-emergence action rating, Echino.” value is given as 1 and the “Pre-emergence action rating, Panicum” value is listed as 1. Moreover, in experiment [2], the “Post-emergence action rating, Abutilon” value is recorded as 2; the “Post-emergence action rating, Amaranth” value came out at 2; the “Post-emergence action rating, Chenop.” value worked out at 1; the “Post-emergence action rating, Digitaria” value amounted to 1. In experiment [2], the “Post-emergence action rating, Echino.” value is given as 2; the “Post-emergence action rating, Ipopur.” value came to 2; the “Post-emergence action rating, Panicum” value is 2; the “Post-emergence action rating, Xanth.” value is 2.
As for `CCN(CC)CC.O=C(C1=C(O)C2CCC(C2)C1=O)c1ccc(C(F)(F)F)nc1COC1CCCCO1` (centres unmarked) [A28-B52 (Et3NH+)], in experiment [1], the “Pre-emergence action rating, Abutilon” value amounted to 3; the “Pre-emergence action rating, Amaranthus” value amounted to 1; the “Pre-emergence action rating, Digitaria” value came to 2; the “Pre-emergence action rating, Echino.” value came out at 2. Also, the “Pre-emergence action rating, Panicum” value in experiment [1] amounted to 1. In experiment [2], the “Post-emergence action rating, Abutilon” value stood at 2; the “Post-emergence action rating, Amaranth” value stood at 2; the “Post-emergence action rating, Chenop.” value is 1; the “Post-emergence action rating, Digitaria” value stood at 2. In addition, in experiment [2], the “Post-emergence action rating, Echino.” value was found to be 2; the “Post-emergence action rating, Ipopur.” value was determined as 2; the “Post-emergence action rating, Panicum” value turned out to be 1; the “Post-emergence action rating, Xanth.” value was 3.
